Experimental data published in patent publication US6833456B2, “Indolyl-urea derivatives of thienopyridines useful as antiangiogenic agents, and methods for their use” (Agouron Pharmaceuticals, Inc., priority 2002, dated 2004).

Tests used:
Mouse PK assay = type: in vivo, B6 female mice; conditions: po; for AUC / Cmax: female, B6, mouse, plasma, 50 mg/kg; for Cmax: p.o., read-out: Mouse Cmax, po ng-h/mL
Outline: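 Plasma levels were measured by HPLC with UV detection after acetonitrile precipitation, using extracted standards, in blood taken up to 4 h (0.5, 1, 2, 4 h) post-dose. Dosing: 50 mg/kg orally or intraperitoneally to two groups of four female B6 mice, vehicle PEG 400:acidified H2O 30:70 suspension.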

[1] = biological target: T1, unphosphorylated VEGF-R2Δ50 (FLVK) (Homo sapiens, UniProt P35968, DEL940-989/E990V); assay: VEGF-R2 coupled spectrophotometric assay, unphosphorylated construct (FLVK); type: biochemical; conditions: for inhibition at 0.05 µM: percent inhibition at 50 nM
T1 construct: VEGF-R2Δ50 contains residues 806-939 and 990-1171; made in house; host or cells: baculovirus/insect cell system
Outline: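 Continuous coupled assay (PEP, PK, LDH; NADH loss at 340 nm) in 200 mM HEPES pH 7.5 with 3 mM ATP, 20 mM poly(E4Y1), 60 mM MgCl2 plus 2 mM MnCl2, started with 5-40 nM non-autophosphorylated VEGF-R2Δ50. Ki values from activity across compound concentrations, Morrison fit.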

HUVEC = assay: bFGF HUVEC proliferation; type: cell-based, human; conditions: Homo sapiens, HUVEC, bFGF stimulated HUVEC
[2] = system: human umbilical vein endothelial cells (HUVEC); assay: HUVEC+VEGF proliferation assay; type: cell-based; conditions: Homo sapiens, HUVEC, 72 h, VEGF 6 ng/mL, MTT
Outline: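 Proliferation driven by VEGF (final 6 ng/mL) was quantified by MTT reduction (A595) 72 h after stimulation. Passage 3-4 HUVEC were starved for 24 h in 1% FBS F12K and given test agent 1 h before VEGF, with DMSO at 0.1% final.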

T1 sequence (P35968 with tags, fused parts or gaps DEL940-989/E990V limits assumed): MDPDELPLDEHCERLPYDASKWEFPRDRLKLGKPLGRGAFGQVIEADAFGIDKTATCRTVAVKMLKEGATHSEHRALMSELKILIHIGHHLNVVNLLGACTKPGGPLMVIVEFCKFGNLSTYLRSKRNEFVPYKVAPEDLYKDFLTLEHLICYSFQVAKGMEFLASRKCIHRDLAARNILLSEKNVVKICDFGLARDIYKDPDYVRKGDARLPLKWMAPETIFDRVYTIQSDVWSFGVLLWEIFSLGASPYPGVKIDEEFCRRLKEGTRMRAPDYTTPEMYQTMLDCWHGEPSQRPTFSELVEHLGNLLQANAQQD

Row | Compound | AUC (Mouse PK assay) [ng·h/mL] | Cmax (Mouse PK assay) [ng/mL] | Mouse Cmin, po (Mouse PK assay) [ng/mL] | Ki [1] [nM] | inhibition at 0.05 µM [1] [%] | IC50 (HUVEC) [nM] | IC50 [2] [nM]
1 | Cc1cc2cc(Nc3ccnc4cc(C(=O)N5CC[C@H](O)C5)sc34)ccc2n1C(=O)NC1CC1 [Example 1k, 5-[2-(3S-Hydroxy-pyrrolidine-1-carbonyl)-thieno[3,2-b]pyridin-7-ylamino]-2-methyl-indole-1-carboxylic acid cyclopropylamide] | 18 | 8 | 0 | 0.63 | 97 | 26.6 | 
2 | CNC(=O)n1c(C)cc2cc(Nc3ccnc4cc(C(=O)N5CCC[C@H]5COC)sc34)ccc21 [Example 1t, 5-(2-[(S)-2-(methoxymethyl)pyrrolidine-1-carbonyl]thieno[3,2-b]pyridin-7-ylamino)-2-methylindole-1-carboxylic acid methylamide] | 5860 | 4650 | 4 | 1.13 | 87 |  | 
3 | CNC(=O)n1c(C)cc2cc(Nc3ccnc4cc(-c5nccn5C)sc34)ccc21 [Example 2a, 5-(2-[1-methyl-1H-imidazol-2-yl]thieno[3,2-b]pyridin-7-ylamino)-2-methylindole-1-carboxylic acid methylamide] | 1170 | 1010 | 19 | 2.1 | 84 |  | 
4 | CNC(=O)n1c(C)cc2cc(Nc3ccnc4cc(C(=O)N5CCC[C@H]5CO)sc34)ccc21 [Example 2b, 5-(2-[(S)-2-(hydroxymethyl)pyrrolidine-1-carbonyl]thieno[3,2-b]pyridin-7-ylamino)-2-methylindole-1-carboxylic acid methylamide] | 2800 | 1900 | 10 | 1.03 | 85 |  | 
5 | CNC(=O)n1c(C)cc2cc(Nc3ccnc4cc(-c5nc(C(C)(C)O)cs5)sc34)ccc21 [Example 3a, 5-{2-[4-(1-Hydroxy-1-methyl-ethyl)-thiazol-2-yl]-thieno[3,2-b]pyridin-7-ylamino}-2-methyl-indole-1-carboxylic acid methylamide] | 10300 | 3950 | 408 | 0.45 | 91 |  | 0.245
6 | Cc1cc2cc(Nc3ccnc4cc(-c5nc(C(C)(C)O)cs5)sc34)ccc2n1C(=O)NC1CC1 [Example 3b, 5-{2-[4-(1-Hydroxy-1-methyl-ethyl)-thiazol-2-yl]-thieno[3,2-b]pyridin-7-ylamino}-2-methyl-indole-1-carboxylic acid cyclopropylamide] | 18800 | 11100 | 252 | 0.21 | 95 |  | 
7 | COC[C@@H]1CCCN1C(=O)c1cc2nccc(Oc3ccc4c(c3)cc(C)n4C(=O)NC3CC3)c2s1 [Example 4b, 5-(2-[(S)-2-(methoxymethyl)pyrrolidine-1-carbonyl]thieno[3,2-b]pyridin-7-yloxy)-2-methylindole-1-carboxylic acid cyclopropylamide] | 3640 | 2110 | 108 | 0.13 | 97 | 11.7 | 
8 | C#CCNC(=O)n1c(C)cc2cc(Oc3ccnc4cc(C(=O)N5CCC[C@H]5COC)sc34)ccc21 [Example 4c, 5-(2-[(S)-2-(methoxymethyl)pyrrolidine-1-carbonyl]thieno[3,2-b]pyridin-7-yloxy)-2-methylindole-1-carboxylic acid prop-2-ynylamide] | 8310 | 2760 | 313 | 0.1 | 96 |  | 
9 | COC[C@@H]1CCCN1C(=O)c1cc2nccc(Oc3ccc4c(c3)cc(C)n4C(=O)NCC#CCO)c2s1 [Example 4d, 5-(2-[(S)-2-(methoxymethyl)pyrrolidine-1-carbonyl]thieno[3,2-b]pyridin-7-yloxy)-2-methylindole-1-carboxylic acid (4-hydroxybut-2-ynyl)amide] | 4060 | 1960 | 54 | 0.41 | 91 |  | 
10 | C#CCNC(=O)n1c(C)cc2cc(Oc3ccnc4cc(C(=O)N5CC[C@H](OC)C5)sc34)ccc21 [Example 4f, 5-[2-(3S-Methoxy-pyrrolidine-1-carbonyl)-thieno[3,2-b]pyridin-7-yloxy]-2-methyl-indole-1-carboxylic acid prop-2-ynylamide] | 15600 | 8840 | 112 | 0.85 | 95 |  | 0.057
11 | CNC(=O)n1c(C)cc2cc(Oc3ccnc4cc(C(=O)N5CC[C@H](OC)C5)sc34)ccc21 [Example 4g, 5-[2-(3S-Methoxy-pyrrolidine-1-carbonyl)-thieno[3,2-b]pyridin-7-yloxy]-2-methyl-indole-1-carboxylic acid methylamide] | 3620 | 2280 | 20 | 0.23 | 97 |  | 0.139
12 | CO[C@H]1CCN(C(=O)c2cc3nccc(Oc4ccc5c(c4)cc(C)n5C(=O)NC4CC4)c3s2)C1 [Example 4h, 5-[2-(3S-Methoxy-pyrrolidine-1-carbonyl)-thieno[3,2-b]pyridin-7-yloxy]-2-methyl-indole-1-carboxylic acid cyclopropylamide] | 2600 | 657 | 161 | 1.6 | 91 |  | 0.65
13 | C#CCNC(=O)n1c(C)cc2cc(Oc3ccnc4cc(C(=O)N5CC[C@@H](OC)C5)sc34)ccc21 [Example 4l, 5-[2-(3R-Methoxy-pyrrolidine-1-carbonyl)-thieno[3,2-b]pyridin-7-yloxy]-2-methyl-indole-1-carboxylic acid prop-2-ynylamide] | 321000 | 11300 | 9020 | 0.19 | 96 |  | 0.176
14 | CNC(=O)n1c(C)cc2cc(Oc3ccnc4cc(C(=O)N5CC[C@@H](O)C5)sc34)ccc21 [Example 4n, 5-[2-(3R-Hydroxy-pyrrolidine-1-carbonyl)-thieno[3,2-b]pyridin-7-yloxy]-2-methyl-indole-1-carboxylic acid methylamide] | 1850 | 1110 | 45 | 0.62 | 99 |  | 0.042
15 | Cc1cc2cc(Oc3ccnc4cc(C(=O)N5CC[C@@H](O)C5)sc34)ccc2n1C(=O)NC1CC1 [Example 4p, 5-[2-(3R-Hydroxy-pyrrolidine-1-carbonyl)-thieno[3,2-b]pyridin-7-yloxy]-2-methyl-indole-1-carboxylic acid cyclopropylamide] | 4630 | 2710 | 68 | 0.25 | 98 |  | 0.128
16 | C#CCNC(=O)n1c(C)cc2c(F)c(Oc3ccnc4cc(C(=O)N5CCC[C@H]5CO)sc34)ccc21 [Example 5e, 4-Fluoro-5-[2-(2S-hydroxymethyl-pyrrolidine-1-carbonyl)-thieno[3,2-b]pyridin-7-yloxy]-2-methyl-indole-1-carboxylic acid prop-2-ynylamide] | 1960 | 1100 | 19 | 0.431 | 100 |  | 
17 | CNC(=O)n1c(C)cc2c(F)c(Oc3ccnc4cc(C(=O)N5CCC[C@H]5CO)sc34)ccc21 [Example 5n, 4-Fluoro-5-[(2-{[(2S)-2-(hydroxymethyl)pyrrolidin-1-yl]carbonyl}thieno[3,2-b]pyridin-7-yl)oxy]-N,2-dimethyl-1H-indole-1-carboxamide] | 2560 | 1820 | 47 | 0.12 | 100 | 93 | 
18 | C#CCNC(=O)n1c(C)c(Cl)c2c(F)c(Oc3ccnc4cc(C(=O)N5CC[C@H](O)C5)sc34)ccc21 [Example 6d, 3-Chloro-4-fluoro-5-[2-(3S-hydroxy-pyrrolidine-1-carbonyl)-thieno[3,2-b]pyridin-7-yloxy]-2-methyl-indole-1-carboxylic acid prop-2-ynylamide] | 1630 | 302 | 125 | 0.32 | 99 |  | 
19 | Cc1cc2cc(Oc3ccnc4cc(C(=O)N5CC[C@H](O)C5)sc34)ccc2n1C(=O)NCCO [Example 9k, 5-[2-(3S-Hydroxy-pyrrolidine-1-carbonyl)-thieno[3,2-b]pyridin-7-yloxy]-2-methyl-indole-1-carboxylic acid (2-hydroxy-ethyl)-amide] | 1100 | 371 | 43 | 0.932 | 90 |  | 0.49
